Source: patent publication US5137822A, “Transformed yeasts having steroid-hydroxylase activity and process for hydroxylation of steroids using the said transformed yeasts” (Director-General of Agency of Industrial Science & …, priority 1987, dated 1992)
Read-outs that look alike come from different tables or passages of the source.

How the values were obtained:
[1] = biological target: T1, bovine adrenocortical cytochrome P-45017α (Bos taurus, UniProt P05185); assay: C17-20-lyase activity of P-45017α-producing yeasts against 17-hydroxyprogesterone; assay type: cell-based; design: made in house; host or cells: Saccharomyces cerevisiae AH22(pAα1), microsomal fraction
T1 sequence (P05185 1-509): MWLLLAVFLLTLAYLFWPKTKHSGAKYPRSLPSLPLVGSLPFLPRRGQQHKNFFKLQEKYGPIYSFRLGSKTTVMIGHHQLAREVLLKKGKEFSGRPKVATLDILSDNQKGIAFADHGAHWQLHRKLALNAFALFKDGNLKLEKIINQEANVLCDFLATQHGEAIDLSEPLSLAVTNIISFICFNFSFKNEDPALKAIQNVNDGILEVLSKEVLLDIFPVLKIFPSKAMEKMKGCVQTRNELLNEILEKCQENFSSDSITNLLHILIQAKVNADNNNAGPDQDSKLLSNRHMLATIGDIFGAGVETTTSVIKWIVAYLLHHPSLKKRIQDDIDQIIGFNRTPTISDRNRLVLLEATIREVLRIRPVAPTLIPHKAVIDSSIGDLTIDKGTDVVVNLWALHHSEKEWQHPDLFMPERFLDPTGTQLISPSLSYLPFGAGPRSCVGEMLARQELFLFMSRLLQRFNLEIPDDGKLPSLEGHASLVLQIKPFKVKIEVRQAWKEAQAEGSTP

[2] = biological target: T1, bovine adrenocortical cytochrome P-45017α; conditions: s. cerevisiae ah22(paα1) culture, 10 µM
Description: S. cerevisiae AH22(pAα1) and AH22(pAAH5) were separately grown to each 7×10^6 cells/ml in an SD-synthetic-medium (2.0% glucose, 0.67% yeast nitrogen base without amino acids, and 20 μg/ml histidine). To 5.0 ml each of the medium was added 50 μl of 1 mM progesterone in ethanol solution containing 10 μCi of [^3 H]-progesterone (or 50 μl of 1 mM pregnenolone in ethanol solution containing 10 μCi of [3H]-pregnenolone) and the mixture was cultured while shaking. Each 1.0 ml of the medium was sampled at 0, 2, 5 and 23 hours and centrifugated. After 2.0 ml of dichloromethane was added to 0.8 ml of the supernatant, the mixture was vigorously agitated and centrifugated. The dichloromethane layer (1.0 ml) was evaporated to dryness and the residue was dissolved in 20 μl of ethanol/ethyl acetate (1:1 by volume). Ten μl of the solution was applied to TLC. The TLC was developed with chloroform containing 25% ethyl acetate at room temperature for 50 minutes and radioautographed. The silica gel of the spot on the film was scraped out from the plate and the radio activity of the gel was measured with a liquid scintillation counter.

[3] = biological target: T1, bovine adrenocortical cytochrome P-45017α; conditions: microsomes, 5 min, pH 7.4
Description: After S. cerevisiae AH22(pAα1) was grown to a cell density of 2.0×10^7 cells/ml, the cells were harvested from 1.8 l of the culture broth and suspended in 50 ml of a buffer A (10 mM Tris-HCl (pH 7.5), 2M sorbitol, 0.1 mM DTT and 0.2 mM EDTA). After 20 mg of Zymolyase 100,000 was added to the suspension, the mixture was incubated at 30° C. for 1 hour. The resulting spheroplasts were harvested by centrifugation (5,000 x g for 10 minutes). They were suspended in 100 ml of buffer A and centrifuged. By repeating the centrifugation, the spheroplasts were washed. They were resuspended in 30 ml of a buffer solution (10 mM Tris-HCl (pH 7.5), 0.65M sorbitol and 0.1 mM DTT) and subjected to ultra sonication at 50W for 5 minutes. The mixture was centrifuged at 10,000 x g for 20 minutes, and the supernatant was again centrifuged at 125,000 x g for 70 minutes. The precipitates were suspended in 2.0 ml of 0.1M potassium phosphate buffer (pH 7.4).
A mixture of 3.6 ml of a 100 mM potassium phosphate buffer (pH 7.4) and 100 μl of a 20 mM NADPH aqueous solution was preincubated at 37° C. for 5 minutes. […] Each 1.0 ml of the mixture was sampled at 0, 2 and 10 minutes and centrifugated. After 2.0 ml each of dichloromethane was added, the sample mixtures were vigorously agitated and centrifugated. The dichloromethane layer (1.0 ml) was evaporated to dryness and the residue was treated in the same manner as in Example 6.

CC(=O)[C@@]1(O)CC[C@H]2[C@@H]3CCC4=CC(=O)CC[C@]4(C)[C@H]3CC[C@@]21C [17-hydroxyprogesterone]
C17-20-lyase activity against 17-hydroxyprogesterone [1]: almost no C17-20 -lyase activity

CC(=O)[C@H]1CC[C@H]2[C@@H]3CC=C4C[C@@H](O)CC[C@]4(C)[C@H]3CC[C@]12C [pregnenolone]
conversion of pregnenolone to 17-hydroxypregnenolone ([2]; 2 h): 28%

CC(=O)[C@H]1CC[C@H]2[C@@H]3CCC4=CC(=O)CC[C@]4(C)[C@H]3CC[C@]12C [progesterone]
added progesterone converted to 17-hydroxyprogesterone ([3]; 2 µM): 88%
added progesterone converted to 17-hydroxyprogesterone ([3]; 10 µM): 49%
added progesterone converted to 17-hydroxyprogesterone ([3]; 50 µM): 17%
conversion of progesterone to 17-hydroxyprogesterone ([2]; 5 h): 87%
conversion of progesterone to 17-hydroxyprogesterone ([2]; 23 h): 97%
